In patent publication US7323471B1, “Topical azathioprine for the treatment of oral autoimmune diseases” (DOR Biopharma, Inc., priority 1999, dated 2008):

Columns and labels:
corneal graft rejections = conditions: topical administration; cited from earlier work
aphthous stomatitis = conditions: topical administration; cited from earlier work
[1] = delayed-release oral capsule, improved ileocolonic delivery; cited from earlier work
parodontosis = conditions: topical administration; cited from earlier work
[2] = 50 mg/ml solution, 60 days at 25° C.; cited from earlier work
[3] = tested on: oral findings due to GVHD
Experimental: Five other patients suffering from oral findings due to GVHD were treated with oral azathioprine solutions, using the method of the present invention. The patients were treated with 5 ml of a solution of AZA (5 mg/ml), three-four times daily. […] One patient (#5) was treated once with an oral rinse, and subsequently with a combination of an AZA rinse and AZA in a gel (5 mg/ml in a 3% methylcellulose base). The patients were not treated with any systemic immunosuppressant or steroid drug. The progress of each patient was reviewed at the times indicated.

chronic oral GVHD = assay: Case report: severe chronic oral GVHD refractory to systemic and topical therapies; conditions: when systemic prednisone was increased; tongue ulceration not resolved
Experimental: They had continuing difficulties with GVHD, including oral involvement.
Oral findings were consistent with pseudomembranous candidiasis, and an ulceration on the left cheek was consistent with minor trauma. […] Acute (grade II) GVHD (skin and liver) was treated with systemic corticosteroids.
Leukoplakia involving the lateral borders of the tongue, consistent with hairy-like leukoplakia, developed. […] Oral changes included findings consistent with GVHD and reactivation of HSV. HSV and candida were confirmed on culture. […] Multiple dilated salivary ducts were visualized on the soft palate. Ulcerations of 3-4 mm in diameter were present on the lateral borders, the dorsum, and the tip of the tongue. […] Biopsy of the ulcer on the cheek was consistent with HSV.
Extensive lichenoid striae with moderate erythema and ulceration involving the lateral tongue on the right and left and the right cheek was seen. A second oral biopsy of lip mucosa and minor salivary glands was completed, which was interpreted as grade II GVHD.
The AZA suspension was made by combining AZA powder with a cherry flavored methylcellulose (1%) suspending vehicle to a final concentration of 5 mg/ml. […]

Row | SMILES | effect in the treatment of corneal graft rejections (corneal graft rejections) | effect in the treatment of aphthous stomatitis (aphthous stomatitis) | systemic bioavailability [1] | effect in the treatment of parodontosis (parodontosis) | retained share of the initial concentration [2] | reduction in ulceration ([3]; all but one of the GVHD patients of Table 1) | reduction in pain, all the patients ([3]; all five GVHD patients of Table 1) | estimated global improvement, all the patients ([3]; all five GVHD patients of Table 1, compared to condition prior to treatment) [%] | oral symptoms and signs (chronic oral GVHD)
1 | Cn1cnc([N+](=O)[O-])c1Sc1ncnc2nc[nH]c12 [AZA, azathioprine] | ineffective | ineffective | dramatically reduced systemic bioavailability | some beneficial effect | at least 96% | at least 50% | at least 50% | ≥ 40 | 
2 | C[C@]12C=CC(=O)C=C1CC[C@@H]1[C@@H]2C(=O)C[C@@]2(C)[C@H]1CC[C@]2(O)C(=O)CO [prednisone] |  |  |  |  |  |  |  |  | improved
